For the experiment, the system named is mouse immortalized TT-D6 Scx-luciferase (ScxL) cell line; transcriptional activation of Scleraxis (Scx) gene. The experiment in a line: SCX-LUC in vitro assay (scleraxis promoter luciferase reporter). It counts as cell-based. Particulars: Mus musculus, 96 h, TT-D6 Scx-luciferase cells, 1 ng/ml TGFβ1, four days. (In general: A reporter such as luciferase makes a cellular process visible.)

Where [1] appears, read: Examples table, read-out: Scx-Luc (EC50 μM).
Where [2] appears, read: Table 1, read-out: Scx-Luc (EC50 uM).

Read-outs that look alike come from different tables or passages of the source.

Broadly, the EC50 is the concentration that produces a half-maximal response. Take `Cc1cc(S(=O)(=O)N[C@H]2CC[C@@](O)(C(F)(F)F)CC2)ccc1-c1ccc2[nH]nc(N)c2n1` [Example 68, 4-(3-amino-1H-pyrazolo[4,3-b]pyridin-5-yl)-N-((1r,4r)-4-hydroxy-4-(trifluoromethyl)cyclohexyl)-3-methylbenzenesulfonamide]: the EC50 under setting [1] was 0.354 µM.

Consider `CC1CCC(NS(=O)(=O)c2ccc(-c3ccc4[nH]nc(N)c4n3)c(Cl)c2)CC1` (stereo not drawn) [Example 36, 4-(3-amino-1H-pyrazolo[4,3-b]pyridin-5-yl)-3-chloro-N-(4-methylcyclohexyl)benzenesulfonamide], for which the EC50 under setting [1] is 0.414 µM.

Consider `Cc1cc(S(=O)(=O)N[C@H]2CC[C@](C)(O)CC2)ccc1-c1ccc2[nH]nc(N)c2n1` [Example 80, 4-(3-amino-1H-pyrazolo[4,3-b]pyridin-5-yl)-N-((1r,4r)-4-hydroxy-4-methylcyclohexyl)-3-methylbenzenesulfonamide], for which the EC50 under setting [1] came out at 0.225 µM.

Turning to `Nc1n[nH]c2ccc(-c3ccc(S(=O)(=O)N[C@H]4CCC[C@H]4O)cc3Cl)nc12` [Example 35, 4-(3-amino-1H-pyrazolo[4,3-b]pyridin-5-yl)-3-chloro-N-((1S,2R)-2-hydroxycyclopentyl)benzenesulfonamide], under setting [1], the EC50 is 2.73 µM.

For the compound `Cc1cc(NS(=O)(=O)c2cccc(Cl)c2)ccc1-c1ccc2[nH]nc(N)c2n1` [Example 42, N-(4-(3-amino-1H-pyrazolo[4,3-b]pyridin-5-yl)-3-methylphenyl)-3-chlorobenzenesulfonamide], the EC50 under setting [1] was 2 µM.

On to `COc1ccc(S(=O)(=O)Nc2ccc(-c3ccc4[nH]nc(N)c4n3)c(Cl)c2)cc1NC(C)=O` [Example 61, N-(5-(N-(4-(3-amino-1H-pyrazolo[4,3-b]pyridin-5-yl)-3-chlorophenyl)sulfamoyl)-2-methoxyphenyl)acetamide], for which, under setting [1], the EC50 turned out to be 1.54 µM.

Turning to `Nc1n[nH]c2ccc(-c3ccc(NS(=O)(=O)c4cccc(Cl)c4)cc3Cl)nc12` [Example 28, N-(4-(3-amino-1H-pyrazolo[4,3-b]pyridin-5-yl)-3-chlorophenyl)-3-chlorobenzenesulfonamide], under setting [1], the EC50 worked out at 2.5 µM.

As to `Nc1n[nH]c2ccc(-c3ccc(NS(=O)(=O)c4ccc(Cl)c(Cl)c4)cc3Cl)nc12` [Example 43, N-(4-(3-amino-1H-pyrazolo[4,3-b]pyridin-5-yl)-3-chlorophenyl)-3,4-dichlorobenzenesulfonamide], the EC50 under setting [1] was determined as 3.31 µM.

Take `Nc1n[nH]c2ccc(-c3ccc(S(=O)(=O)N4CC[C@H](O)C4)cc3Cl)nc12` [Example 71, (S)-1-((4-(3-amino-1H-pyrazolo[4,3-b]pyridin-5-yl)-3-chlorophenyl)sulfonyl)pyrrolidin-3-ol]: the EC50 under setting [1] was 3.53 µM.

On to `Nc1n[nH]c2ccc(-c3ccc(S(=O)(=O)Nc4cccc(F)c4)cc3Cl)nc12` [Example 40], for which the concentration giving a half-maximal response (EC50) under setting [1] was 0.416 µM.

For `Cc1cc(S(=O)(=O)NC2CCCCC2O)ccc1-c1ccc2[nH]nc(N)c2n1` (stereo not drawn) [Example 91, 4-(3-amino-1H-pyrazolo[4,3-b]pyridin-5-yl)-N-(2-hydroxycyclohexyl)-3-methylbenzenesulfonamide], under setting [1], the EC50 is 1.81 µM.

Turning to `CC(C)(C)NS(=O)(=O)c1ccc(-c2ccc3[nH]nc(N)c3n2)c(F)c1` [Example 75, 4-(3-amino-1H-pyrazolo[4,3-b]pyridin-5-yl)-N-tert-butyl-3-fluorobenzenesulfonamide], under setting [1], the EC50 is 1.52 µM.

Take `Cc1ccc(S(=O)(=O)Nc2ccc(-c3ccc4[nH]nc(N)c4n3)c(Cl)c2)cc1` [Example 25, N-(4-(3-amino-1H-pyrazolo[4,3-b]pyridin-5-yl)-3-chlorophenyl)-4-methylbenzenesulfonamide]: the concentration giving a half-maximal response (EC50) under setting [1] was determined as 0.611 µM.

On to `Nc1n[nH]c2ccc(-c3ccc(S(=O)(=O)N4CC(F)(F)C4)cc3Cl)nc12` [Example 74, 5-(2-chloro-4-((3,3-difluoroazetidin-1-yl)sulfonyl)phenyl)-1H-pyrazolo[4,3-b]pyridin-3-amine], for which the EC50 under setting [1] is 2.03 µM.

With `COc1ccc(S(=O)(=O)Nc2ccc(-c3ccc4[nH]nc(N)c4n3)c(Cl)c2)cc1` [Example 5, N-(4-(3-amino-1H-pyrazolo[4,3-b]pyridin-5-yl)-3-chlorophenyl)-4-methoxybenzenesulfonamide], under setting [1], the EC50 came to 0.909 µM.

In the case of `Nc1n[nH]c2ccc(-c3ccc(S(=O)(=O)NCc4ccccc4)cc3Cl)nc12` [Example 73, 4-(3-amino-1H-pyrazolo[4,3-b]pyridin-5-yl)-N-benzyl-3-chlorobenzenesulfonamide], under setting [1], the EC50 turned out to be 3.53 µM.

Consider `C1=C/COCc2cc(ccc2OCCN2CCCC2)Nc2nccc(n2)-c2cccc(c2)COC/1` [reference compound], for which, under setting [2], the EC50 was 1.06 µM.

On to `Cc1cccc(S(=O)(=O)Nc2ccc(-c3ccc4[nH]nc(N)c4n3)c(Cl)c2)c1` [Example 84, N-(4-(3-amino-1H-pyrazolo[4,3-b]pyridin-5-yl)-3-chlorophenyl)-3-methylbenzenesulfonamide], for which the EC50 under setting [1] was 0.045 µM.

Regarding `C[C@@H](O)c1nc2cnc3[nH]ccc3c2n1[C@H]1CC[C@H](C#N)CC1` [reference compound], the EC50 under setting [2] was 2.69 µM.

On to `COc1cccc(S(=O)(=O)Nc2ccc(-c3ccc4[nH]nc(N)c4n3)c(Cl)c2)c1` [Example 67, N-(4-(3-amino-1H-pyrazolo[4,3-b]pyridin-5-yl)-3-chlorophenyl)-3-methoxybenzenesulfonamide], for which, under setting [1], the EC50 was found to be 2.32 µM.

Consider `Nc1n[nH]c2ccc(-c3ccc(NS(=O)(=O)c4ccc(Cl)c(F)c4)cc3Cl)nc12` [Example 13, N-(4-(3-amino-1H-pyrazolo[4,3-b]pyridin-5-yl)-3-chlorophenyl)-4-chloro-3-fluorobenzenesulfonamide], for which, under setting [1], the EC50 was found to be 1.34 µM.

As to `Cc1cc(S(=O)(=O)N2CC(F)(F)C[C@H]2CO)ccc1-c1ccc2[nH]nc(N)c2n1` [Example 37, (S)-(1-((4-(3-amino-1H-pyrazolo[4,3-b]pyridin-5-yl)-3-methylphenyl)sulfonyl)-4,4-difluoropyrrolidin-2-yl)methanol], the EC50 under setting [1] stood at 0.593 µM.

With `Nc1n[nH]c2ccc(-c3ccc(NS(=O)(=O)c4ccc(OC(F)(F)F)cc4)cc3Cl)nc12` [Example 88, N-(4-(3-amino-1H-pyrazolo[4,3-b]pyridin-5-yl)-3-chlorophenyl)-4-(trifluoromethoxy)benzenesulfonamide], the EC50 under setting [1] is 2.43 µM.

`Nc1n[nH]c2ccc(-c3ccc(S(=O)(=O)Nc4cccc(Cl)c4)cc3Cl)nc12` [Example 90, 4-(3-amino-1H-pyrazolo[4,3-b]pyridin-5-yl)-3-chloro-N-(3-chlorophenyl)benzenesulfonamide]: the EC50 under setting [1] turned out to be 2.54 µM.

For the compound `Cc1cc(S(=O)(=O)NC2CCCCC2)ccc1-c1ccc2[nH]nc(N)c2n1` [Example 39, 4-(3-amino-1H-pyrazolo[4,3-b]pyridin-5-yl)-N-cyclohexyl-3-methylbenzenesulfonamide], under setting [1], the EC50 was 0.473 µM.

Regarding `Nc1n[nH]c2ccc(-c3ccc(S(=O)(=O)N4CC5CCCC5C4)cc3Cl)nc12` (stereo not drawn) [Example 51, 5-(2-chloro-4-((hexahydrocyclopenta[c]pyrrol-2(1H)-yl)sulfonyl)phenyl)-1H-pyrazolo[4,3-b]pyridin-3-amine], the EC50 under setting [1] worked out at 2.39 µM.

For `Cc1cc(S(=O)(=O)N[C@H]2C[C@@H](CO)C2)ccc1-c1ccc2[nH]nc(N)c2n1` [Example 47, 4-(3-amino-1H-pyrazolo[4,3-b]pyridin-5-yl)-N-((1s,3s)-3-(hydroxymethyl)cyclobutyl)-3-methylbenzenesulfonamide], the EC50 under setting [1] is 5.34 µM.
